Test results taken from patent US11279712B2, “Macrocyclic compounds that inhibit MCL-1 protein” (AMGEN INC., priority 2017, dated 2022).
Where two headings read alike, the source gives them in different places. One block for each compound: values may come before it.

Legend:
[1] = tested on: OPM-2 human multiple myeloma cell line; assay: Cell Viability Assay (OPM-2 10 FBS); format: cell-based; conditions: OPM-2 cells, CellTiter-Glo, read-out: OPM-2 10% FBS IC50 IP
Protocol: Cell Viability Assay (OPM-2 10 FBS)
The human multiple myeloma cell line, OPM-2, was cultured in complete growth medium containing RPMI 1640 and 10% fetal bovine serum (FBS). Cells were seeded into 384-well plates at 3000 cells/well density in complete growth medium containing 10% FBS, and incubated for 16 h with serially diluted test compounds in a 37° C. incubator with 5% CO2. Cell viability was tested using CellTiter-Glo® assay (Promega, Madison, Wis.) according to the manufacturer recommendations. Luminescence was determined using an EnVision® Multilabel plate reader 25 min after the addition of detection reagent. IC50 values were then calculated with Xlfit using a logistical 4-parameter fit model in GraphPad Prism (GraphPad Software, San Diego, Calif.) or in Genedata Screener® (Genedata, Basel, Switzerland).

[2] = biological target: Mcl-1/Bim interaction (recombinant human Mcl-1 residues 171-327) (Homo sapiens (Human), UniProt Q07820); assay: Cell Free Mcl-1:Bim Affinity Assay (Mcl-1 HTRF); format: binding; conditions: TR-FRET, 0.1 nM Mcl-1(171-327), 0.05 nM biotin-Bim(51-76)
Protocol: Cell Free Mcl-1:Bim Affinity Assay (Mcl-1 HTRF)
The inhibition of the Mcl-1/Bim interaction was measured using a time-resolved fluorescence resonance energy transfer (TR-FRET) assay. The recombinant human Mcl-1 (C-terminally 6×His tagged Mcl-1 containing residues 171-327) was generated at Amgen Inc (Thousand Oaks, Calif.). A biotinylated peptide derived from human Bim (residues 51-76) was purchased from CPC Scientific (San Jose, Calif.). The TR-FRET assay was conducted in a 384-well white OptiPlate™ (PerkinElmer, Waltham, Mass.) in a total volume of 40 μL. The reaction mixture contained 0.1 nM Mcl-1(171-327), 0.05 nM biotin-Bim(51-76), 0.05 nM LANCES Eu-W1024 Anti-6×His (PerkinElmer), 0.072 nM Streptavidin-Xlent (Cisbio, Bedford, Mass.), and serially diluted test compounds in the binding buffer of 20 mM Hepes, pH 7.5, 150 mM NaCl, 0.016 mM Brij®35, and 1 mM dithiothreitol. Test compounds were pre-incubated with Mcl-1(171-327) and biotin-Bim (51-76) for 60 min before addition of the detection mixture (LANCE® Eu-W1024 Anti-6×His and Streptavidin-Xlent). The reaction plates were further incubated overnight and then were read on an Envision® multimode reader (PerkinElmer). Fluorescence signals were measured at 620 nm (40-nm bandwidth) and 665 nm (7.5-nm bandwidth) with a 60 μs delay after excitation at 320 nm (75-nm bandwidth). The signal ratio at 665/620 nm corresponded to the Mcl-1/Bim interaction and was used in all data analyses. The IC50 values of test compounds were determined from duplicate data by analyzing competition curves using a four-parameter sigmoidal model in GraphPad Prism (GraphPad Software, San Diego, Calif.) or in Genedata Screener® (Genedata, Basel, Switzerland).

Sequence of Mcl-1/Bim interaction (recombinant human Mcl-1 residues 171-327) (Q07820 171-327): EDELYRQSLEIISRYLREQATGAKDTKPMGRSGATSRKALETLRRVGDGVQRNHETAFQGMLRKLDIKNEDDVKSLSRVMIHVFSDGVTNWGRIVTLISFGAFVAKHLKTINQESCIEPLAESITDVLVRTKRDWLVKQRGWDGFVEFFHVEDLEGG

SMILES: C[C@@H]1[C@@H](C)CCC[C@H](CN2CCN3CCN(C)C[C@@H]3C2)[C@@H]2CC[C@H]2CN2C[C@@]3(CCCc4cc(Cl)ccc43)COc3ccc(cc32)C(=O)NS1(=O)=O (single isomer, unassigned) [Example 56]
IC50 ([1]; 16 h): 1.03 µM
IC50 [2]: 0.00052 µM

SMILES: C[C@@H]1[C@@H](C)CCC[C@H]([C@@H](C)O)[C@@H]2CC[C@H]2CN2C[C@@]3(CCCc4cc(Cl)ccc43)COc3ccc(cc32)C(=O)NS1(=O)=O (single isomer, unassigned) [Example 58]
IC50 ([1]; 16 h): 1.23 µM
IC50 [2]: 0.000995 µM

SMILES: COCC[C@@H]1[C@@H](C)CCC[C@H](CO)[C@@H]2CC[C@H]2CN2C[C@@]3(CCCc4cc(Cl)ccc43)COc3ccc(cc32)C(=O)NS1(=O)=O (single isomer, unassigned) [Example 59]
IC50 ([1]; 16 h): 1.32 µM
IC50 [2]: 0.000921 µM

SMILES: C[C@@H]1[C@@H](C)CCC[C@H](CO)[C@@H]2CC[C@H]2CN2C[C@@]3(CCCc4cc(Cl)ccc43)COc3ccc(cc32)C(=O)NS1(=O)=O (single isomer, unassigned) [Example 63]
IC50 ([1]; 16 h): 1.46 µM
IC50 [2]: 0.000997 µM

SMILES: C[C@@H]1[C@@H](C)CCC[C@H]([C@@H](C)O)[C@@H]2CC[C@H]2CN2C[C@@]3(CCCc4cc(Cl)ccc43)COc3ccc(cc32)C(=O)NS1(=O)=O (single isomer, unassigned) [Example 74]
IC50 ([1]; 16 h): 2.04 µM
IC50 [2]: 0.00367 µM

SMILES: COC[C@H]1CCC[C@H](C)[C@@H](C)S(=O)(=O)NC(=O)c2ccc3c(c2)N(C[C@@H]2CC[C@@H]12)C[C@@]1(CCCc2cc(Cl)ccc21)CO3 (single isomer, unassigned) [Example 80]
IC50 ([1]; Homo sapiens, OPM-2, 16 h): 3.51 µM
IC50 [2]: 0.00161 µM

SMILES: C[C@@H]1[C@@H](C)CCC[C@H]([C@H](O)C2CCN(C)CC2)[C@@H]2CC[C@H]2CN2C[C@@]3(CCCc4cc(Cl)ccc43)COc3ccc(cc32)C(=O)NS1(=O)=O (single isomer, unassigned) [Example 83]
IC50 ([1]; 16 h): 4.23 µM
IC50 [2]: 0.000552 µM

SMILES: C[C@@H]1CS(=O)(=O)NC(=O)c2ccc3c(c2)N(C[C@@H]2CC[C@H]2[C@@H](CO)CC[C@@H]1C)C[C@@]1(CCCc2cc(Cl)ccc21)CO3 (single isomer, unassigned) [Example 84]
IC50 ([1]; 16 h): 5.84 µM
IC50 [2]: 0.00343 µM

SMILES: C[C@@H]1[C@@H](C)CCC[C@@H]([C@H](O)C(F)(F)F)[C@@H]2CC[C@H]2CN2C[C@@]3(CCCc4cc(Cl)ccc43)COc3ccc(cc32)C(=O)NS1(=O)=O (single isomer, unassigned) [Example 86]
IC50 ([1]; 16 h): 9.23 µM
IC50 [2]: 0.0275 µM

SMILES: C[C@@H]1[C@@H](C)CCC[C@@H]([C@@H](O)C(F)(F)F)[C@@H]2CC[C@H]2CN2C[C@@]3(CCCc4cc(Cl)ccc43)COc3ccc(cc32)C(=O)NS1(=O)=O (single isomer, unassigned) [Example 87]
IC50 ([1]; 16 h): 9.89 µM
IC50 [2]: 0.0133 µM

SMILES: C[C@@H]1[C@@H](C)CCC[C@H](C)[C@@H]2CC[C@H]2CN2C[C@@]3(CCCc4cc(Cl)ccc43)COc3ccc(cc32)C(=O)NS1(=O)=O (single isomer, unassigned) [Example 89]
IC50 ([1]; 16 h): > 33.3 µM
IC50 [2]: 0.0143 µM

Further compounds by falling IC50 [2], results first:

IC50 ([1]; 16 h): > 33.3 µM
IC50 [2]: 0.0114 µM
SMILES: C[C@@H]1[C@@H](C)CCC[C@@H]([C@@H](O)c2ccccc2)[C@@H]2CC[C@H]2CN2C[C@@]3(CCCc4cc(Cl)ccc43)COc3ccc(cc32)C(=O)NS1(=O)=O (single isomer, unassigned) [Example 88]

IC50 ([1]; 16 h): 17 µM
IC50 [2]: 0.00741 µM
SMILES: C[C@@H]1[C@@H](C)CCC[C@H](C)[C@@H]2CC[C@H]2CN2C[C@@]3(CCCc4cc(Cl)ccc43)COc3ccc(cc32)C(=O)NS1(=O)=O (single isomer, unassigned) [Example 73]

IC50 ([1]; 16 h): 1.6 µM
IC50 [2]: 0.00729 µM
SMILES: C[C@@H]1[C@@H](C)CCC[C@@H]([C@H](O)C(F)(F)F)[C@@H]2CC[C@H]2CN2C[C@@]3(CCCc4cc(Cl)ccc43)COc3ccc(cc32)C(=O)NS1(=O)=O (single isomer, unassigned) [Example 66]

IC50 ([1]; 16 h): 28.3 µM
IC50 [2]: 0.00236 µM
SMILES: C[C@@H]1[C@@H](C)CCC[C@H]([C@H](O)c2ccccc2)[C@@H]2CC[C@H]2CN2C[C@@]3(CCCc4cc(Cl)ccc43)COc3ccc(cc32)C(=O)NS1(=O)=O (single isomer, unassigned) [Example 78]

IC50 ([1]; 16 h): 3 µM
IC50 [2]: 0.00159 µM
SMILES: C[C@H]([C@H]1CCC[C@H](C)[C@@H](C)S(=O)(=O)NC(=O)c2ccc3c(c2)N(C[C@@H]2CC[C@H]21)C[C@@]1(CCCc2cc(Cl)ccc21)CO3)N1CCOCC1 (single isomer, unassigned) [Example 79]

IC50 ([1]; 16 h): 1.67 µM
IC50 [2]: 0.00105 µM
SMILES: C[C@@H]1[C@@H](C)CCC[C@H](CN2CCOCC2)[C@@H]2CC[C@H]2CN2C[C@@]3(CCCc4cc(Cl)ccc43)COc3ccc(cc32)C(=O)NS1(=O)=O (single isomer, unassigned) [Example 67]

IC50 ([1]; 16 h): 1.67 µM
IC50 [2]: 0.000938 µM
SMILES: C[C@@H]1[C@@H](C)CCC[C@H]([C@H](O)C2CCN(C)CC2)[C@@H]2CC[C@H]2CN2C[C@@]3(CCCc4cc(Cl)ccc43)COc3ccc(cc32)C(=O)NS1(=O)=O (single isomer, unassigned) [Example 68]

IC50 ([1]; 16 h): 1.99 µM
IC50 [2]: 0.000849 µM
SMILES: C[C@H]([C@H]1CCC[C@H](C)[C@@H](C)S(=O)(=O)NC(=O)c2ccc3c(c2)N(C[C@@H]2CC[C@H]21)C[C@@]1(CCCc2cc(Cl)ccc21)CO3)N1CCOCC1 (single isomer, unassigned) [Example 72]

IC50 ([1]; 16 h): 1.86 µM
IC50 [2]: 0.000843 µM
SMILES: C[C@H]([C@H]1CCC[C@H](C)[C@@H](C)S(=O)(=O)NC(=O)c2ccc3c(c2)N(C[C@@H]2CC[C@H]21)C[C@@]1(CCCc2cc(Cl)ccc21)CO3)N1CCOCC1 (single isomer, unassigned) [Example 70]

IC50 ([1]; 16 h): 2.44 µM
IC50 [2]: 0.000808 µM
SMILES: CC[C@@H](O)[C@@H]1/C=C/C[C@H](C)[C@@H](C)S(=O)(=O)NC(=O)c2ccc3c(c2)N(C[C@@H]2CC[C@H]21)C[C@@]1(CCCc2cc(Cl)ccc21)CO3 (single isomer, unassigned) [Example 75]

IC50 ([1]; 16 h): 3.65 µM
IC50 [2]: 0.000772 µM
SMILES: C[C@H]1CCC[C@H](CO)[C@@H]2CC[C@H]2CN2C[C@@]3(CCCc4cc(Cl)ccc43)COc3ccc(cc32)C(=O)NS(=O)(=O)C1 (single isomer, unassigned) [Example 82]

IC50 ([1]; 16 h): 7.13 µM
IC50 [2]: 0.000676 µM
SMILES: CC[C@@H]1CCCC[C@H](CO)[C@@H]2CC[C@H]2CN2C[C@@]3(CCCc4cc(Cl)ccc43)COc3ccc(cc32)C(=O)NS1(=O)=O (single isomer, unassigned) [Example 85]

IC50 ([1]; Homo sapiens, OPM-2, 16 h): 1.17 µM
IC50 [2]: 0.000604 µM
SMILES: COCCNC(=O)[C@@H]1CCC[C@H](C)[C@@H](C)S(=O)(=O)NC(=O)c2ccc3c(c2)N(C[C@@H]2CC[C@H]21)C[C@@]1(CCCc2cc(Cl)ccc21)CO3 (single isomer, unassigned) [Example 57]

IC50 ([1]; 16 h): 20.7 µM
IC50 [2]: 0.000442 µM
SMILES: C[C@@H]1[C@@H](C)CCC[C@H](C(=O)O)[C@@H]2CC[C@H]2CN2C[C@@]3(CCCc4cc(Cl)ccc43)COc3ccc(cc32)C(=O)NS1(=O)=O (single isomer, unassigned) [Example 77]

IC50 ([1]; 16 h): 1.95 µM
IC50 [2]: 0.000359 µM
SMILES: CC[C@@H]1CCCC[C@H](CO)[C@@H]2CC[C@H]2CN2C[C@@]3(CCCc4cc(Cl)ccc43)COc3ccc(cc32)C(=O)NS1(=O)=O (single isomer, unassigned) [Example 71]

IC50 ([1]; 16 h): 1.41 µM
IC50 [2]: 0.000281 µM
SMILES: CC[C@H](O)[C@H]1/C=C/C[C@H](C)[C@@H](C)S(=O)(=O)NC(=O)c2ccc3c(c2)N(C[C@@H]2CC[C@H]21)C[C@@]1(CCCc2cc(Cl)ccc21)CO3 (single isomer, unassigned) [Example 61]
